Legend:
[1] = tested on: SK-OV-3; test: Growth inhibition of human SK-OV-3 cells incubated for 3 days by CellTiter-Glo luminescent assay; type: functional; conditions: SK-OV-3, 72 h, time 3 day
[2] = tested on: OVCAR-3; test: Growth inhibition of human OVCAR-3 cells incubated for 3 days by CellTiter-Glo luminescent assay; type: functional; conditions: OVCAR-3, 72 h, time 3 day

- GI50 [1]: 453 nM
- GI50 [2]: 4 nM
SMILES: CC[C@H](C)[C@@H]([C@@H](CC(=O)N1CCC[C@H]1[C@H](OC)[C@@H](C)CC(=O)N[C@H](C)[C@@H](C)c1ccccc1)OC)N(C)C(=O)[C@@H](NC(=O)[C@H](C(C)C)N(C)C(=O)OCc1ccc(NC(=O)[C@H](CCCNC(N)=O)NC(=O)[C@@H](NC(=O)CCCCCN2C(=O)CC(SCC[C@@H](NC(=O)[C@H](Cc3ccc(O)cc3)NC(=O)[C@H](CO)NC(=O)[C@H](Cc3c[nH]c4ccccc34)NC(=O)[C@H](Cc3cnc[nH]3)NC(=O)[C@@H]3CCC(=O)N3)C(=O)N[C@@H](CC(C)C)C(=O)N[C@@H](CCCNC(=N)N)C(=O)N3CCC[C@H]3C(=O)NCC(N)=O)C2=O)C(C)C)cc1)C(C)C (some centres not stated)

Source: ChEMBL document CHEMBL6134896, “Recent Advances in Augmenting the Therapeutic Efficacy of Peptide-Drug Conjugates” (2025)
